Test results taken from patent EP0637237B1, “CALCIUM RECEPTOR-ACTIVE MOLECULES” (BRIGHAM AND WOMEN'S HOSPITAL, INC., priority 1993, dated 1994).
Like-named read-outs stand apart in the source and are kept apart here.

Columns and labels:
[1] = test system: osteoclast Ca^2+ receptor; test: [Ca2+]i (indo-1) in single rat osteoclasts; assay type: cell-based
[2] = target: T1, bovine parathyroid Ca^2+-receptor (Bos taurus, UniProt P35384); test: Cl- current in Xenopus oocytes expressing the cloned receptor (BoPCaR 1); assay type: cell-based; settings: neomycin 20-100 µM
T1 construct: expressed in transfected cells; host or cells: Xenopus laevis oocytes injected with cRNA from the BoPCaR 1 cDNA (plasmid pSPORT1, ATCC 75416)
T1 sequence (P35384 20-1085): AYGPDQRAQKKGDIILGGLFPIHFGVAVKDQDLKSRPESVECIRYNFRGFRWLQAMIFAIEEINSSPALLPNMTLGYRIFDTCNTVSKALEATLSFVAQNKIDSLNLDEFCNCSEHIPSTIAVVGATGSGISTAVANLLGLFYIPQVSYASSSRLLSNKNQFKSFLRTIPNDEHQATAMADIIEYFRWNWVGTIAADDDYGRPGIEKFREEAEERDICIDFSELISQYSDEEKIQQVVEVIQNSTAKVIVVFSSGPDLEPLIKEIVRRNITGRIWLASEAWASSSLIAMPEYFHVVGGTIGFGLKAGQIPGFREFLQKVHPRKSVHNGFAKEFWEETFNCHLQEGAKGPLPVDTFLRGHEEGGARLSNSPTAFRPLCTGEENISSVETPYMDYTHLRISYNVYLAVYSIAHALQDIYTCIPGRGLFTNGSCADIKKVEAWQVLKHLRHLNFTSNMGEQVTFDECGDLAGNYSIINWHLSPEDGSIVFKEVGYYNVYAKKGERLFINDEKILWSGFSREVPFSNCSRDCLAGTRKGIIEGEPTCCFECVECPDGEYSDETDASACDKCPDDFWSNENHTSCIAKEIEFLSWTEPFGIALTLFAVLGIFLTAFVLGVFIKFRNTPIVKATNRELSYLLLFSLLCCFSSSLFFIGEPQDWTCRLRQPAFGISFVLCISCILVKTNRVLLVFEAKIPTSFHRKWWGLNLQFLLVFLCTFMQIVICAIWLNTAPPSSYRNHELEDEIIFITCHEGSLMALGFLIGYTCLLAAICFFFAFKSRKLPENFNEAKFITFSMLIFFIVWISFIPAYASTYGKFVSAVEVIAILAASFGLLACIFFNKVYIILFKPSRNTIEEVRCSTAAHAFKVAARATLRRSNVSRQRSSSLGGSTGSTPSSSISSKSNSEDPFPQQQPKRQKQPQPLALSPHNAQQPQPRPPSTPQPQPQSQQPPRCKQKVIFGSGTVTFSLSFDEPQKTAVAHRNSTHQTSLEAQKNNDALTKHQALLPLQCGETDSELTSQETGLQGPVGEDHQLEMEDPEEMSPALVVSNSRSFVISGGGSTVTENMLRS

Ca^2+ receptor = target: T2, Ca^2+ receptor (Homo sapiens, UniProt P41180); test: Cl- current in Xenopus oocytes injected with human parathyroid poly(A)+ mRNA; assay type: cell-based
T2 construct: Oocytes were injected with poly(A)^+-enriched mRNA from human parathyroid tissue (hyperplastic glands from a case of secondary HPT); expressed in transfected cells; host or cells: Xenopus laevis oocytes injected with poly(A)+ mRNA from hyperplastic human parathyroid glands
T2 sequence (P41180 20-1078): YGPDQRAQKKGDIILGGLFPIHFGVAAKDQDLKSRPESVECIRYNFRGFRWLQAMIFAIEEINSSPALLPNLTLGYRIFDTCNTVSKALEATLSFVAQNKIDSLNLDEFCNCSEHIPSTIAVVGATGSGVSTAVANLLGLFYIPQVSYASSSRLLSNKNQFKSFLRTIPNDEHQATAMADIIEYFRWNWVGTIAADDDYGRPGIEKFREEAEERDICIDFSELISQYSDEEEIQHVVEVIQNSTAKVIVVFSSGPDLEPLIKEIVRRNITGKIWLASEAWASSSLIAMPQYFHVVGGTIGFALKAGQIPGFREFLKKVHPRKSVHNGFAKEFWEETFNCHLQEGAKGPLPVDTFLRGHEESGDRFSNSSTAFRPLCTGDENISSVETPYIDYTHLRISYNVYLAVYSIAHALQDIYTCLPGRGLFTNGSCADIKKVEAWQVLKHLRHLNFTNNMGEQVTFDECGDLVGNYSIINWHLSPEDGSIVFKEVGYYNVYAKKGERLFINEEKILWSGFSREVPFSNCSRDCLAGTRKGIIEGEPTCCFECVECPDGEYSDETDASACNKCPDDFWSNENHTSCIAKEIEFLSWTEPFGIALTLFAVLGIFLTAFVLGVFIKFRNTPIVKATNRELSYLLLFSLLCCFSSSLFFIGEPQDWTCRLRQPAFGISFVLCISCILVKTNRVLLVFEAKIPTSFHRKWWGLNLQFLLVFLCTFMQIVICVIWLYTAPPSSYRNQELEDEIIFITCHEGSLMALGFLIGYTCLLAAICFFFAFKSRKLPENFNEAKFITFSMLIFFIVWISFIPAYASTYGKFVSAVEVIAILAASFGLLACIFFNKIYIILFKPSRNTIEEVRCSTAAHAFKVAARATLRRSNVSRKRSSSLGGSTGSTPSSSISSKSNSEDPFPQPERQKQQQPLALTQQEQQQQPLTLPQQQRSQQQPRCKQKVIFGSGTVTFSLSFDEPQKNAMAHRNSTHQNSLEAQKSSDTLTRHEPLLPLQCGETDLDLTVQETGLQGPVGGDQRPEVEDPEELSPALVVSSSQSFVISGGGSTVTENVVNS

[3] = target: T3, parathyroid cell Ca^2+ receptor (Homo sapiens, UniProt P41180); test: [Ca2+]i (fura-2) in human parathyroid cells; assay type: cell-based; design: increase in [Ca2+]i: dose or concentration left out as unconfirmed
T3 construct: Dissociated parathyroid cells were prepared from a parathyroid adenoma obtained by surgery from a patient with primary hyperparathyroidism; endogenous in cells; host or cells: primary human parathyroid cells from adenomatous or hyperplastic glands
T3 sequence (P41180 20-1078): T2 sequence (P41180 20-1078)
Description: Human parathyroid glands, obtained from patients undergoing surgical removal of parathyroid tissue for primary or uremic hyperparathyroidism (HPT), were treated similarly to bovine tissue. Glands were trimmed of excess fat and connective tissue and then minced with a fine scissors into approximate cubes of 2-3 mm. Dissociated parathyroid cells were prepared by collagenase digestion. Dissociated cells were then purified by centrifugation in Percoll buffer. The resultant parathyroid cell preparation was essentially devoid of red blood cells, adipocytes, and capillary tissue as assessed by phase contrast microscopy and Sudan black B staining. Dissociated and purified parathyroid cells were present as small clusters containing 5 to 20 cells.
The cells were then pelleted, resuspended in the same buffer lacking the ester, and incubated a further 15 min at 37°C. The cells were subsequently washed twice with PCB containing 0.5 mM CaCl2 and 0.5% BSA and maintained at room temperature (about 20°C). Immediately before use, the cells were diluted five-fold with prewarmed 0.5 mM CaCl2-PCB to obtain a final BSA concentration of 0.1%. The concentration of cells in the cuvette used for fluorescence recording was 1-2 x 10^6/ml.
The fluorescence of indicator-loaded cells was measured at 37°C in a spectrofluorimeter (Biomedical Instrumentation Group, University of Pennsylvania, Philadelphia, PA) equipped with a thermostated cuvette holder-and magnetic stirrer using excitation and emission wavelengths of 340 and 510 nm, respectively. […] Leakage of dye is dependent on temperature and most occurs within the first 2 min after warming the cells in the cuvette; dye leakage increases only very slowly thereafter. To correct the calibration for dye leakage, cells were placed in the cuvette and stirred at 37°C for 2-3 min. The cell suspension was then removed, the cells pelleted, and the supernatant returned to a clean cuvette. […] This estimate was subtracted from the apparent Fmin.

[4] = target: T4, parathyroid cell Ca^2+ receptor (Bos taurus, UniProt P35384); assay type: cell-based, bovine
T4 sequence (P35384 20-1085): T1 sequence (P35384 20-1085)

NC[C@@H]1O[C@H](O[C@H]2[C@@H](O)[C@H](O[C@@H]3[C@@H](O)[C@H](N)C[C@H](N)[C@H]3O[C@H]3O[C@H](CN)[C@@H](O)[C@H](O)[C@H]3N)O[C@@H]2CO)[C@H](N)[C@@H](O)[C@@H]1O [neomycin B]
effect on basal [Ca2+]i ([1]; 5 mM): without effect on basal [Ca^2+]i
effect on the response to subsequent extracellular Ca2+ (25 mM) ([1]; neomycin 10 mM, spermine 20 mM, verapamil 100 µM): did not block
increase in [Ca2+]i in rat osteoclasts ([1]; neomycin 10 mM, spermine 10 or 20 mM): Neither neomycin (10 mM) nor spermine (10 or 20 mM) caused increases in [Ca^2+]i
increase in [Ca2+]i in osteoclasts ([1]; neomycin B 1 mM, spermine 1 or 5 mM, Fig. 23): failed to evoke any increase in [Ca^2+]i
increase in [Ca2+]i in osteoclasts ([1]; screening, small responses were detected): none of these caused any large increase in [Ca^2+]i
changes in Cl- current [2]: produced changes in Cl^- current in oocytes essentially identical to those produced by Ca^2+ or Gd^3+
mobilization of intracellular Ca2+ in oocytes expressing the Ca2+ receptor (Ca^2+ receptor; hexacyclen 135 µM, neomycin 100 µM, NPS 382 5 mM): effective
change in current in water-injected oocytes (Ca^2+ receptor; neomycin B 10 mM, five water-injected oocytes): failed to cause any change in the current
pattern of change in [Ca2+]i ([3]; human parathyroid cells from adenomatous tissue, Fig. 19): not only a transient but additionally a steady-state increase in [Ca^2+]i
increase in [Ca2+]i ([3]; tested): large increase in [Ca^2+]i
[Ca2+]i response in Ca2+-free buffer ([4]; 100 µM neomycin (maximally effective), absence of extracellular Ca2+): rapid and transient increase in [Ca^2+]i
[Ca2+]i response in Ca2+-free buffer ([4]; 10 àM neomycin alone (submaximal), Ca2+-free buffer): did not by itself cause an increase in [Ca^2+]i
